What was measured:
[1] = biological target: T1, Solute carrier organic anion transporter family member 1A4 (Rattus norvegicus, UniProt O35913); assay: TP_TRANSPORTER: Western in vivo SD rat, liver; type: functional, organism-based, Sprague-Dawley
T1 sequence (O35913 whole entry): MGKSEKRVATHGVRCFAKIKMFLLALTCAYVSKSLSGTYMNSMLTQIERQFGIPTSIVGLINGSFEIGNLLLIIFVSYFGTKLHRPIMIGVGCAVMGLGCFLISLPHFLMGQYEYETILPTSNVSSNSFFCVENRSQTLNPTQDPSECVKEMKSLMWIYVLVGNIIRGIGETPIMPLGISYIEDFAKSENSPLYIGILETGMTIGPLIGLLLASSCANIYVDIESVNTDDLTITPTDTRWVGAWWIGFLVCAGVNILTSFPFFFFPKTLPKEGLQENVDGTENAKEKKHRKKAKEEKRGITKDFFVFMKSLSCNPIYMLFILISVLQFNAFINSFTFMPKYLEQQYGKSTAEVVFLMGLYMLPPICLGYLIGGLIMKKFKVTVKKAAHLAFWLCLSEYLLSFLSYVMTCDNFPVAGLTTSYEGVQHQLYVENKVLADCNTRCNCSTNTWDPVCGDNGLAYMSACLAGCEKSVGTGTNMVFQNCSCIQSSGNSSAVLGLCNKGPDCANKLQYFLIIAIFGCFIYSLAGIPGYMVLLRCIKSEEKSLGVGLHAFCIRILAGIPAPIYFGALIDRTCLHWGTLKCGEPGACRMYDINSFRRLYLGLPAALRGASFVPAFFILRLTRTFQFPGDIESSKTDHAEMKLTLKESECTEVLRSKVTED

[2] = biological target: T1, Solute carrier organic anion transporter family member 1A4; assay: TP_TRANSPORTER: Northern blot in vivo SD rat, liver; type: functional, organism-based, Sprague-Dawley

| SMILES | Activity [1] | Activity [2] |
| --- | --- | --- |
| Clc1cc2c(cc1Cl)Oc1cc(Cl)c(Cl)cc1O2 [2,3,7,8-TETRACHLORODIBENZO-P-DIOXIN] | inducer [Decrease] | – |
| O=c1cc(-c2ccccc2)oc2ccc3ccccc3c12 [BETA-NAPHTHOFLAVONE] | inducer [Decrease] | – |
| CCCC[C@@H](CC)COC(=O)c1ccccc1C(=O)OC[C@@H](CC)CCCC [BIS(2-ETHYLHEXYL)PHTHALATE] | inducer [+] | – |
| C[C@@H]1C[C@H]2[C@@H]3CCC4=CC(=O)C=C[C@]4(C)[C@@]3(F)[C@@H](O)C[C@]2(C)[C@@]1(O)C(=O)CO [DEXAMETHASONE] | inducer [+] | – |
| C=CCSCC=C [DIALLYL SULFIDE] | inducer [+] | inducer [+] |
| OCc1c[nH]c2ccccc12 [INDOLE-3-CARBINOL] | inducer [Decrease] | inducer [+] |
| CCC1(c2ccccc2)C(=O)NC(=O)NC1=O [PHENOBARBITAL] | inducer [+] | – |
| Clc1ccc(-c2cc(Cl)c(Cl)cc2Cl)c(Cl)c1 [POLYCHLORINATED BIPHENYL 99] | inducer [+] | – |
| Clc1ccc(-c2cc(Cl)c(Cl)c(Cl)c2)cc1Cl [POLYCHLORINATED BIPHENYL 126] | inducer [Decrease] | – |
| CC(=O)[C@H]1[C@H](C#N)C[C@H]2[C@@H]3CC=C4C[C@@H](O)CC[C@]4(C)[C@H]3CC[C@@]21C [PREGNENOLONE CARBONITRILE] | inducer [+] | inducer [+] |
| CC(=O)S[C@@H]1CC2=CC(=O)CC[C@]2(C)[C@H]2CC[C@@]3(C)[C@@H](CC[C@@]34CCC(=O)O4)[C@H]12 [SPIRONOLACTONE] | inducer [+] | – |

Reference: ChEMBL document CHEMBL2074300, “Induction profile of rat organic anion transporting polypeptide 2 (oatp2) by prototypical drug-metabolizing enzyme inducers that activate gene expression through ligand-activated transcription factor pathways” (J Pharmacol Exp Ther, 2002)
